In this experiment the target is T1, EBP (Homo sapiens, UniProt Q15125).
T1 construct: HEK293T cells were utilized as the source of EBP enzyme; endogenous in cells; host or cells: HEK293T
T1 sequence (Q15125 whole entry): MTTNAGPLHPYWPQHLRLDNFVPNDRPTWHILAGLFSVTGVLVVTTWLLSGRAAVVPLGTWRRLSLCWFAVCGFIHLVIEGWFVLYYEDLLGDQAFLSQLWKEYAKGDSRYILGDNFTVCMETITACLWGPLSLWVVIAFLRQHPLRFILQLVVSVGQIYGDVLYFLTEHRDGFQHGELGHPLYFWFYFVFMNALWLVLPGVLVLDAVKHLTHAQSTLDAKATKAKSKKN
In words: EBP Functional Assay (EBP immunoaffinity LC-MS assay). Format: biochemical. Conditions: EBP enzyme from HEK293T cells; 30 min with inhibitor, then zymosterol-d5, 37° C., 4 h; percent conversion to dehydrolathosterol-d5 by LC-APCI MRM MS. Put shortly: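 HEK293T cells served as EBP source; enzyme preincubated 30 min with inhibitor dilutions, then zymosterol-d5 substrate added and incubated 4 h at 37° C. Sterols extracted and quantified by LC-APCI MRM MS; percent conversion to […] fit to 4-parameter logistic for IC50. Tasin-1 reference inhibitor.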
For `O=S(=O)(c1ccc(C(F)F)nc1C1CC1)N1CC2(CN(C3CCOCC3)C2)C1` [Example 116, 2-((2-cyclopropyl-6-(difluoromethyl)pyridin-3-yl)sulfonyl)-6-(tetrahydro-2H-pyran-4-yl)-2,6-diazaspiro[3.3]heptane], the concentration for half-maximal inhibition (IC50) (commonly the concentration that gives 50% inhibition) is < 100 nM. For `O=S(=O)(c1ccc(C(F)F)nc1C1CC1)N1CC2(CN(C3CC4(COC4)C3)C2)C1` [Example 119, 2-((2-cyclopropyl-6-(difluoromethyl)pyridin-3-yl)sulfonyl)-6-(2-oxaspiro[3.3]heptan-6-yl)-2,6-diazaspiro[3.3]heptane] the value was 100 to 250 nM; for `O=S(=O)(c1cc(C(F)F)nn1C1CC1)N1CC2(CN(C3CCOCC3)C2)C1` [Example 120, 2-((1-cyclopropyl-3-(difluoromethyl)-1H-pyrazol-5-yl)sulfonyl)-6-(tetrahydro-2H-pyran-4-yl)-2,6-diazaspiro[3.3]heptane], 100 to 250 nM; for `O=S(=O)(c1cnc(C(F)(F)F)cc1C1CC1)N1CC2(CN(C3CC4(COC4)C3)C2)C1` [Example 121, 2-((4-cyclopropyl-6-(trifluoromethyl)pyridin-3-yl)sulfonyl)-6-(2-oxaspiro[3.3]heptan-6-yl)-2,6-diazaspiro[3.3]heptane], 250 to 4000 nM. For `O=S(=O)(c1cnc(C(F)(F)F)cc1C1CC1)N1CC2(CN(CC3CCOCC3)C2)C1` [Example 122, 2-((4-cyclopropyl-6-(trifluoromethyl)pyridin-3-yl)sulfonyl)-6-((tetrahydro-2H-pyran-4-yl)methyl)-2,6-diazaspiro[3.3]heptane] the value was < 100 nM; for `CCc1cc(C(F)(F)F)ncc1S(=O)(=O)N1CC2(CN(C3CC4(COC4)C3)C2)C1` [Example 125, 2-((4-ethyl-6-(trifluoromethyl)pyridin-3-yl)sulfonyl)-6-(2-oxaspiro[3.3]heptan-6-yl)-2,6-diazaspiro[3.3]heptane], 250 to 4000 nM; for `CCc1cc(C(F)(F)F)ncc1S(=O)(=O)N1CC2(CN(CC3CCOCC3)C2)C1` [Example 126, 2-((4-ethyl-6-(trifluoromethyl)pyridin-3-yl)sulfonyl)-6-((tetrahydro-2H-pyran-4-yl)methyl)-2,6-diazaspiro[3.3]heptane], 250 to 4000 nM. For `Cc1nc(C(F)(F)F)ccc1S(=O)(=O)N1CC2(CN(CC3(C)CCOCC3)C2)C1` [Example 129, 2-((2-methyl-6-(trifluoromethyl)pyridin-3-yl)sulfonyl)-6-((4-methyltetrahydro-2H-pyran-4-yl)methyl)-2,6-diazaspiro[3.3]heptane] the value was < 100 nM. Regarding `Cc1nc(C(F)(F)F)ccc1S(=O)(=O)N1CC2(CN(C(C)C3(C)CCOCC3)C2)C1` (centres unmarked) [Example 131], the 50% inhibitory concentration (IC50) lay within 100 to 250 nM. `Cc1nc(C(F)(F)F)ccc1S(=O)(=O)N1CC2(CN(C(C)C3(C)COC3)C2)C1` (centres unmarked) [Example 132]: the 50% inhibitory concentration (IC50) was 100 to 250 nM. For `Cc1nc(C(F)(F)F)ccc1S(=O)(=O)N1CC2(CN(CC3CCOC3)C2)C1` (centres unmarked) [Example 133] the value was 250 to 4000 nM. For `Cc1nc(C(F)(F)F)ccc1S(=O)(=O)N1CC2(CN(CC3(C)CCCO3)C2)C1` (centres unmarked) [Example 134] the value was 100 to 250 nM. `Cc1nc(C(F)(F)F)ccc1S(=O)(=O)N1CC2(CN(CC3CCCOC3)C2)C1` (centres unmarked) [Example 136] gave a 50% inhibitory concentration (IC50) of 100 to 250 nM. As for `Cc1nc(C(F)(F)F)ccc1S(=O)(=O)N1CC2(CN(C(C)C3CCCOC3)C2)C1` (centres unmarked) [Example 137], the half-maximal inhibitory concentration (IC50) is < 100 nM. For `Cc1nc(C(F)(F)F)ccc1S(=O)(=O)N1CC2(CN(CC3CCCO3)C2)C1` (centres unmarked) [Example 139] the value was 250 to 4000 nM.

`Cc1nc(C(F)(F)F)ccc1S(=O)(=O)N1CC2(CN(C3CCOC3)C2)C1` (centres unmarked) [Example 140]: the IC50 lay within 250 to 4000 nM. On to `Cc1nc(C(F)(F)F)ccc1S(=O)(=O)N1CC2(CN(CC3(C)COC3)C2)C1` [Example 141], for which the concentration for half-maximal inhibition (IC50) was < 100 nM. In the case of `Cc1nc(C(F)(F)F)ccc1S(=O)(=O)N1CC2(CN(C3CCOCC3(C)C)C2)C1` (centres unmarked) [Example 142], the 50% inhibitory concentration (IC50) is < 100 nM.

Consider `Cc1nc(C(F)(F)F)ccc1S(=O)(=O)N1CC2(CN(C3CCOCC3C)C2)C1` (centres unmarked) [Example 145], for which the IC50 is < 100 nM.

For the compound `Cc1nc(C(F)(F)F)ccc1S(=O)(=O)N1CC2(CN(C3CCC(F)(F)CC3)C2)C1` [Example 150], the 50% inhibitory concentration (IC50) is < 100 nM. In the case of `Cc1nc(C(F)(F)F)ccc1S(=O)(=O)N1CC2(CN(C3CCCOC3)C2)C1` (centres unmarked) [Example 151], the IC50 was in the range of 250 to 4000 nM.

Consider `Cc1nc(C(F)(F)F)ccc1S(=O)(=O)N1CC2(CN(CC3CCOCC3)C2)C1` [Example 152], for which the IC50 was < 100 nM.

The compound `Cc1nc(C(F)(F)F)ccc1S(=O)(=O)N1CC2(CN(CC3COC3)C2)C1` [Example 154] gave a 50% inhibitory concentration (IC50) of 100 to 250 nM.

For `O=S(=O)(c1cccnc1C(F)(F)F)N1CC2(CN(C3CCOCC3)C2)C1` [Example 162, 2-(tetrahydro-2H-pyran-4-yl)-6-((2-(trifluoromethyl)pyridin-3-yl)sulfonyl)-2,6-diazaspiro[3.3]heptane], the half-maximal inhibitory concentration (IC50) lay within 250 to 4000 nM. For `Cc1nc(C2CC2(F)F)ccc1S(=O)(=O)N1CC2(CN(C3CCOCC3)C2)C1` (centres unmarked) [Example 163, 2-((6-(2,2-difluorocyclopropyl)-2-methylpyridin-3-yl)sulfonyl)-6-(tetrahydro-2H-pyran-4-yl)-2,6-diazaspiro[3.3]heptane] the value was < 100 nM; for `Cc1ncccc1S(=O)(=O)N1CC2(CN(C3CCOCC3)C2)C1` [Example 164, 2-((2-methylpyridin-3-yl)sulfonyl)-6-(tetrahydro-2H-pyran-4-yl)-2,6-diazaspiro[3.3]heptane], 250 to 4000 nM. The compound `O=S(=O)(c1cnc(Cl)c(C(F)(F)F)c1)N1CC2(CN(C3CCOCC3)C2)C1` [Example 165, 2-((6-chloro-5-(trifluoromethyl)pyridin-3-yl)sulfonyl)-6-(tetrahydro-2H-pyran-4-yl)-2,6-diazaspiro[3.3]heptane] gave a concentration for half-maximal inhibition (IC50) of 250 to 4000 nM. As to `Cn1nc(C(C)(F)F)cc1S(=O)(=O)N1CC2(CN(C3CCOCC3)C2)C1` [Example 166, 2-((3-(1,1-difluoroethyl)-1-methyl-1H-pyrazol-5-yl)sulfonyl)-6-(tetrahydro-2H-pyran-4-yl)-2,6-diazaspiro[3.3]heptane], the IC50 was in the range of 100 to 250 nM.

Turning to `COc1cc(C)c(S(=O)(=O)N2CC3(CN(C4CCOCC4)C3)C2)cn1` [Example 168, 2-((6-methoxy-4-methylpyridin-3-yl)sulfonyl)-6-(tetrahydro-2H-pyran-4-yl)-2,6-diazaspiro[3.3]heptane], the IC50 was in the range of 250 to 4000 nM.

The compound `Cn1nc2c(c1S(=O)(=O)N1CC3(CN(C4CCOCC4)C3)C1)CCC2` [Example 169, 2-methyl-3-((6-(tetrahydro-2H-pyran-4-yl)-2,6-diazaspiro[3.3]heptan-2-yl)sulfonyl)-2,4,5,6-tetrahydrocyclopenta[c]pyrazole] gave a 50% inhibitory concentration (IC50) of 250 to 4000 nM. For `CCN1CC2(C1)CN(S(=O)(=O)c1ccc(C(F)(F)F)nc1C)C2` [Example 170], the IC50 lay within 250 to 4000 nM. For `Cc1nc(C(F)(F)F)ccc1S(=O)(=O)N1CC2(CN(CC3CC3C#N)C2)C1` (centres unmarked) [Example 171] the value was 250 to 4000 nM; for `COCCOCCCN1CC2(C1)CN(S(=O)(=O)c1ccc(C(F)(F)F)nc1C)C2` [Example 172], 250 to 4000 nM; for `Cc1nc(C(F)(F)F)ccc1S(=O)(=O)N1CC2(CN(CCCOC3CCCC3)C2)C1` [Example 176], < 100 nM. For `COC(=O)C(C)(C)CCN1CC2(C1)CN(S(=O)(=O)c1ccc(C(F)(F)F)nc1C)C2` [Example 177] the value was 250 to 4000 nM; for `COC(CN1CC2(C1)CN(S(=O)(=O)c1ccc(C(F)(F)F)nc1C)C2)C1CC1` (centres unmarked) [Example 178], 250 to 4000 nM. Turning to `COCCCCCN1CC2(C1)CN(S(=O)(=O)c1ccc(C(F)(F)F)nc1C)C2` [Example 179], the IC50 is 100 to 250 nM.

Consider `COC(C)CCCN1CC2(C1)CN(S(=O)(=O)c1ccc(C(F)(F)F)nc1C)C2` (centres unmarked) [Example 180], for which the half-maximal inhibitory concentration (IC50) was 100 to 250 nM. For the compound `COCCC1(CN2CC3(C2)CN(S(=O)(=O)c2ccc(C(F)(F)F)nc2C)C3)CCC1` [Example 181], the IC50 was 100 to 250 nM. For `CCSCCCN1CC2(C1)CN(S(=O)(=O)c1ccc(C(F)(F)F)nc1C)C2` [Example 183], the IC50 was < 100 nM. For `Cc1nc(C(F)(F)F)ccc1S(=O)(=O)N1CC2(CN(CCC3CC3)C2)C1` [Example 184] the value was < 100 nM. With `Cc1nc(C(F)(F)F)ccc1S(=O)(=O)N1CC2(CN(CCOC(C)(C)C)C2)C1` [Example 185], the IC50 is < 100 nM. The compound `Cc1nc(C(F)(F)F)ccc1S(=O)(=O)N1CC2(CN(CC3CCOC(C)(C)C3)C2)C1` (centres unmarked) [Example 186] displayed a half-maximal inhibitory concentration (IC50) of 100 to 250 nM.

As for `Cc1nc(C(F)(F)F)ccc1S(=O)(=O)N1CC2(CN(CC3(O)CCOCC3)C2)C1` [Example 187, 4-((6-((2-methyl-6-(trifluoromethyl)pyridin-3-yl)sulfonyl)-2,6-diazaspiro[3.3]heptan-2-yl)methyl)tetrahydro-2H-pyran-4-ol], the IC50 was in the range of 250 to 4000 nM. As to `Cc1nc(C(F)(F)F)ccc1S(=O)(=O)N1CC2(CN(CC3(F)CCOCC3)C2)C1` [Example 188, 2-((4-fluorotetrahydro-2H-pyran-4-yl)methyl)-6-((2-methyl-6-(trifluoromethyl)pyridin-3-yl)sulfonyl)-2,6-diazaspiro[3.3]heptane], the IC50 is < 100 nM. As to `CC(C)c1cc(S(=O)(=O)N2CC3(CN(C4CCOCC4)C3)C2)n(C)n1` [Example 189, 2-((3-isopropyl-1-methyl-1H-pyrazol-5-yl)sulfonyl)-6-(tetrahydro-2H-pyran-4-yl)-2,6-diazaspiro[3.3]heptane], the 50% inhibitory concentration (IC50) was < 100 nM. For `O=S(=O)(c1ccc(C(F)(F)F)nc1C1CC1)N1CC2(CN(CC3CCOCC3)C2)C1` [Example 190, 2-((2-cyclopropyl-6-(trifluoromethyl)pyridin-3-yl)sulfonyl)-6-((tetrahydro-2H-pyran-4-yl)methyl)-2,6-diazaspiro[3.3]heptane] the value was < 100 nM.

Source of the values: patent publication US20250171463A1 (BIOGEN MA INC., priority 2022, published 2025).
